ChEMBL document CHEMBL3045624, “Quantitative structureactivity relationships for estimating the aryl hydrocarbon receptor binding affinities of resveratrol derivatives and the antioxidant activities of hydroxystilbenes” (Med Chem Res, 2010)
≈ marks a conversion by molar mass, not a printed value.

Key:
[1] = Antioxidant activity in CTAB micelles assessed as time required to inhibit AAPH-induced linoleic acid peroxidation; format: functional
[2] = Antioxidant activity in SDS micelles assessed as time required to inhibit AAPH-induced linoleic acid peroxidation; format: functional
[3] = Antioxidant activity in CTAB micelles assessed as inhibition rate constant for AAPH-induced linoleic acid peroxidation; format: functional
[4] = Antioxidant activity in SDS micelles assessed as inhibition rate constant for AAPH-induced linoleic acid peroxidation; format: functional
[5] = Antioxidant activity assessed as inhibition rate constant for reaction with peroxyl radicals; format: functional
[6] = target: T1, Aryl hydrocarbon receptor (Homo sapiens, UniProt P35869); assay: Binding affinity to aryl hydrocarbon receptor (unknown origin); conditions: read-out: Ki(app)
T1 sequence (P35869 whole entry): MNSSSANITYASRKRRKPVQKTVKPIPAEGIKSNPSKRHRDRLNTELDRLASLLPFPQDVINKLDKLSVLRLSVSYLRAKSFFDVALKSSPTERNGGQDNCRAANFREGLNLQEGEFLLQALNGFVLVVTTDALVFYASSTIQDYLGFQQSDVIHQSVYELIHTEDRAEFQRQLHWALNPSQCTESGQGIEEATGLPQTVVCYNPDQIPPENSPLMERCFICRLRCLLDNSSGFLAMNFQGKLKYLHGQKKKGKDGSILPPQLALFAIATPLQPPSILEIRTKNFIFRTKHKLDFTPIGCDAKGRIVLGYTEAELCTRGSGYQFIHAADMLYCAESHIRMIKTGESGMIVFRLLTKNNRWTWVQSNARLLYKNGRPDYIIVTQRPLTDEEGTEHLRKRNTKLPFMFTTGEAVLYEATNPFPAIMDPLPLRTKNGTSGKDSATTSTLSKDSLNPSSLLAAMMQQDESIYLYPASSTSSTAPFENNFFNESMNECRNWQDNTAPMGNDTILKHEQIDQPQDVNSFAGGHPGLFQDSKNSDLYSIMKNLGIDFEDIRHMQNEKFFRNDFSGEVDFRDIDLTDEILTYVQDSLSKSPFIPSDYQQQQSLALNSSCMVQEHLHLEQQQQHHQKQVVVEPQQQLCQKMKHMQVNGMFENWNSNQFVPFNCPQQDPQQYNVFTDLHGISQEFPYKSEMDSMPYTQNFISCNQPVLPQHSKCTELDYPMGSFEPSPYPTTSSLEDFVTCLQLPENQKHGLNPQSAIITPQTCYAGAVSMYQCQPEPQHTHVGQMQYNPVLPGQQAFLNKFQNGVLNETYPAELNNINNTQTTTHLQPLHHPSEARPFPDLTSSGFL

[7] = Antioxidant activity assessed as decrease in initial quantity of DPPH measured up to 6 hr by spectrophotometric analysis; format: functional
Liver microsome = assay: Antioxidant activity in Rattus norvegicus Wistar (rat) liver microsomes assessed as inhibition of Fe2+/ascorbate-induced lipid peroxidation incubated for 10 min prior to Fe2+/ascorbate induction measured after 60 min by TBARS assay; format: functional
[8] = test system: Radical scavenging activity; assay: Antioxidant activity assessed as inhibition of DPPH free radical formation; format: functional; set-up: concentration or dose not given beside the values; conditions: dose or concentration not given here
[9] = Antioxidant activity assessed as time required to induce lipid oxidation by Rancimat method; format: functional
[10] = Antioxidant activity assessed as inhibition rate constant in AAPH-induced human LDL peroxidation; format: functional
[11] = Antioxidant activity assessed as time required to inhibit Cu2+-induced human LDL peroxidation; format: functional
[12] = Antioxidant activity assessed as time required to inhibit AAPH-induced human LDL peroxidation; format: functional
[13] = Antioxidant activity assessed as superoxide scavenging activity in riboflavin light-NBT system; format: functional

With `Oc1cc(/C=C/c2ccccc2)cc(O)c1O` the TIME [1] was 2.9 ×10³ s, the TIME [2] was 2.4 ×10³ s and the INH [3] was 1.3 ×10⁴ L/mol/s. The INH [4] was 3.1 ×10⁴ L/mol/s.

With `COc1cc(/C=C\c2ccc(O)c(O)c2)cc(OC)c1` the INH [5] was 76 ×10⁴ L/mol/s.

In the case of `COc1ccc(/C=C\c2cc(OC)cc(OC)c2)cc1` [8Z-3,4',5-TRIMETHOXYSTILBENE], the Ki [6] is reported as 0.012 µM.

For `COc1ccc(/C=C/c2cc(O)cc(O)c2)cc1` [RESVERATROL 4'-METHYL ETHER], the EC50 [7] was 48.6 µM and the EC50 (Liver microsome) was 661 µM.

For `Oc1cc(O)cc(/C=C/c2ccccc2)c1`, the inhibition [8] was 29.8%, the TIME [9] was 2.3 h and the INH [10] was 3.3 ×10⁵ L/mol/s. For the same molecule, the TIME [1] was 2.4 ×10³ s, the TIME [11] was 0.717 h and the TIME [2] was 1.5 ×10³ s. The TIME [12] was 0.362 h, the INH [3] was 0.5 ×10⁴ L/mol/s and the INH [4] was 1.7 ×10⁴ L/mol/s.

In the case of `COc1cc(/C=C\c2ccc(O)cc2)cc(OC)c1`, the INH [5] is reported as 6.3 ×10⁴ L/mol/s.

`O=C(/C=C/c1cc(O)c(O)c(O)c1)Oc1cc(O)cc(/C=C/c2ccc(O)cc2)c1` gave an IC50 [13] of 10 µg/mL (≈ 24.6 µM).

In the case of `COc1cc(/C=C/c2ccc(O)c(OC)c2)ccc1O`, the INH [10] is reported as 4.1 ×10⁵ L/mol/s, the TIME [11] is reported as 1.47 h and the TIME [12] is reported as 0.85 h.

In the case of `Oc1ccc(/C=C/c2ccccc2)cc1O`, the INH [10] is reported as 4.9 ×10⁵ L/mol/s, the TIME [1] is reported as 4.1 ×10³ s and the TIME [11] is reported as 1.77 h. For the same molecule, the TIME [2] was 4.9 ×10³ s, the TIME [12] was 0.65 h and the INH [3] was 0.9 ×10⁴ L/mol/s. For the same molecule, the INH [4] was 2.9 ×10⁴ L/mol/s.

In the case of `Oc1ccc(/C=C/c2cc(O)c(O)c(O)c2)cc1`, the inhibition [8] is reported as 92.9% and the TIME [9] is reported as 43 h.

Molecule `Oc1cc(/C=C/c2cc(O)c(O)c(O)c2)cc(O)c1O` has an IC50 [13] of 0.9 µg/mL (≈ 3.26 µM).

`Oc1ccc(/C=C/c2ccc(O)cc2)cc1` showed an INH [10] of 8.2 ×10⁵ L/mol/s, a TIME [1] of 2.6 ×10³ s and a TIME [11] of 1.28 h. For the same molecule, the TIME [2] was 3.2 ×10³ s, the TIME [12] was 0.308 h and the INH [3] was 0.8 ×10⁴ L/mol/s. The INH [4] was 1.4 ×10⁴ L/mol/s.

With `CCOc1ccc(/C=C\c2cc(OC)cc(OC)c2)cc1` the Ki [6] was 0.012 µM.

In the case of `Oc1ccc(/C=C\c2cc(O)cc(O)c2)cc1` [CIS-RESVERATROL], the EC50 (Liver microsome) is reported as 241 µM and the INH [5] is reported as 7.4 ×10⁴ L/mol/s.

Work on `COc1cc(/C=C\c2cc(C(C)(C)C)c(O)c(C(C)(C)C)c2)cc(OC)c1` yielded an INH [5] of 2.3 ×10⁴ L/mol/s.

In the case of `Oc1ccc(/C=C/c2cc(O)c(O)c(O)c2)cc1O`, the IC50 [13] is reported as 3 µg/mL (≈ 11.5 µM).

`Oc1cc(O)cc(/C=C/c2cc(O)c(O)c(O)c2)c1` gave an inhibition [8] of 92.9% and a TIME [9] of 48.1 h.

Work on `O=C(/C=C/c1ccc(O)c(O)c1)Oc1cc(O)cc(/C=C/c2ccc(O)cc2)c1` yielded an IC50 [13] of 9.2 µg/mL (≈ 23.6 µM).

`COc1cc(/C=C\c2ccc(O)c(OC)c2)cc(OC)c1` gave an INH [5] of 5.7 ×10⁴ L/mol/s.

For `Oc1ccc(/C=C/c2ccccc2)c(O)c1`, the INH [10] was 6.2 ×10⁵ L/mol/s, the TIME [11] was 0.883 h and the TIME [12] was 0.292 h.

With `Oc1cc(/C=C/c2cc(O)c(O)c(Br)c2)cc(O)c1O` the IC50 [13] was 8.1 µg/mL (≈ 23.9 µM).

`Oc1ccc(/C=C/c2ccc(O)c(O)c2)cc1` showed an INH [10] of 4.2 ×10⁵ L/mol/s, a TIME [1] of 5.1 ×10³ s and a TIME [11] of 1.75 h. It also gave a TIME [2] of 7.2 ×10³ s and a TIME [12] of 0.62 h.

Molecule `Oc1ccc(/C=C/c2cc(O)cc(O)c2)cc1` [RESVERATROL] has an inhibition [8] of 55.1%, an IC50 [13] of 106 µg/mL (≈ 464 µM) and a TIME [9] of 12.3 h. The INH [10] was 4.4 ×10⁵ L/mol/s, the TIME [1] was 2.7 ×10³ s and the TIME [11] was 0.967 h. The TIME [2] was 3.1 ×10³ s, the TIME [12] was 0.397 h and the INH [3] was 0.7 ×10⁴ L/mol/s. It also gave an EC50 (Liver microsome) of 135 µM, an INH [5] of 14 ×10⁴ L/mol/s and an INH [4] of 1.3 ×10⁴ L/mol/s.

`COc1cc(/C=C/c2ccc(O)c(OC)c2)cc(OC)c1` gave an INH [5] of 10 ×10⁴ L/mol/s.

`Oc1ccc(/C=C/c2ccccc2)cc1` gave a TIME [1] of 1.7 ×10³ s, a TIME [2] of 2.1 ×10³ s and an INH [3] of 1 ×10⁴ L/mol/s. The INH [4] was 1.2 ×10⁴ L/mol/s.

In the case of `CCCCOc1ccc(/C=C\c2cc(OC)cc(OC)c2)cc1`, the Ki [6] is reported as 0.012 µM.

For `O=C(Oc1cc(O)cc(/C=C/c2ccc(O)cc2)c1)c1cc(O)c(O)c(O)c1`, the IC50 [13] was 16 µg/mL (≈ 42.1 µM).

Molecule `Oc1cc(O)cc(/C=C/c2ccc(O)c(O)c2)c1` has an inhibition [8] of 67.1% and a TIME [9] of 60.3 h.

`COc1cc(/C=C/c2cc(O)c(O)c(C(C)(C)C)c2)cc(OC)c1` showed an INH [5] of 240 ×10⁴ L/mol/s.

Molecule `COc1cc(/C=C/c2ccc(O)c(O)c2)cc(OC)c1` has an INH [5] of 110 ×10⁴ L/mol/s.

`COc1cc(/C=C/c2cc(C(C)(C)C)c(O)c(C(C)(C)C)c2)cc(OC)c1` gave an INH [5] of 6.8 ×10⁴ L/mol/s.

In the case of `Oc1ccc(/C=C/c2ccc(O)c(O)c2)cc1O`, the INH [10] is reported as 3.7 ×10⁵ L/mol/s, the TIME [11] is reported as 1.78 h and the TIME [12] is reported as 0.85 h.

Molecule `Oc1cc(O)cc(/C=C/c2cc(O)cc(O)c2)c1` has an inhibition [8] of 46.5% and a TIME [9] of 3.7 h.

Molecule `COc1cc(/C=C/c2ccc(O)cc2)cc(OC)c1` [PTEROSTILBENE] has an EC50 [7] of 30.1 µM, an EC50 (Liver microsome) of 355 µM and an INH [5] of 13 ×10⁴ L/mol/s.

For `Oc1ccc(/C=C/c2ccc(O)cc2O)cc1`, the INH [10] was 3.3 ×10⁵ L/mol/s, the TIME [11] was 0.717 h and the TIME [12] was 0.458 h.

Work on `Clc1ccc(/C=C\c2cc(Cl)cc(Cl)c2)cc1` yielded a Ki [6] of 0.012 µM.

Molecule `COc1ccc(/C=C\c2cc(Cl)cc(Cl)c2)cc1` has a Ki [6] of 0.012 µM.
